# In PubChem BioAssay AID248 (DTP/NCI, 2004):
# Several values for one entry are separate records, joined by “and”; a condition that tells them apart may be missing. Equal entries are not always repeated. Toxic doses and inconclusive results are not listed.
# System: L1210 leukemia ip in BDF1 mice, survival T/C
# Experiment: NCI In Vivo Anticancer Drug Screen. Data for tumor model L1210 Leukemia (intraperitoneal) in B6D2F1 (BDF1) mice
# Conditions: endpoint: mean survival time, higher = longer survival
# Outline: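 Survival endpoint. Drug-treated group vs vehicle group, expressed as T divided by C. Tumor passaged by transplantation.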
# [1] = dose: 200.0 mg/kg/injection, schedule: Q01DX001 (ip), vehicle: saline with Tween-80
# [2] = dose: 100.0 mg/kg/injection, schedule: Q01DX009 (ip), vehicle: saline with Tween-80
# [3] = dose: 200.0 mg/kg/injection, schedule: Q01DX009 (ip), vehicle: saline with Tween-80
# [4] = dose: 400.0 mg/kg/injection, schedule: Q01DX009 (ip), vehicle: saline with Tween-80
# [5] = dose: 400.0 mg/kg/injection, schedule: Q04DX003 (ip), vehicle: saline with Tween-80
# [6] = dose: 75.0 mg/kg/injection, schedule: Q04DX003 (ip), vehicle: saline
# [7] = dose: 400.0 mg/kg/injection, schedule: Q01DX001 (ip), vehicle: carboxymethylcellulose (CMC)
compound,measurement,setting,value
O=c1[nH]cnc2n[nH]nc12,T/C,"dose: 176.0 mg/kg/injection, schedule: Q01DX009 (ip), vehicle: other",113 % of control
same,T/C,"dose: 264.0 mg/kg/injection, schedule: Q01DX009 (ip), vehicle: other",117 % of control
same,T/C,"dose: 400.0 mg/kg/injection, schedule: Q01DX009 (ip), vehicle: other",124 % of control
NS(=O)(=O)c1cc(Cl)ccc1Cl,T/C,"dose: 100.0 mg/kg/injection, schedule: Q01DX001 (ip), vehicle: saline with Tween-80",88 % of control
same,T/C,[1],94 % of control
same,T/C,"dose: 400.0 mg/kg/injection, schedule: Q01DX001 (ip), vehicle: saline with Tween-80",91 % of control
O=C(Cn1cc(F)c(=O)[nH]c1=O)c1ccc(Cl)s1,T/C,[2],108 % of control
same,T/C,"dose: 100.0 mg/kg/injection, schedule: Q04DX003 (ip), vehicle: saline with Tween-80",100 % of control
same,T/C,[3],89 % of control
same,T/C,"dose: 200.0 mg/kg/injection, schedule: Q04DX003 (ip), vehicle: saline with Tween-80",97 % of control
same,T/C,[4],97 % of control
same,T/C,[5],102 % of control
N#C/C([S-])=C(/[S-])C#N.N#C/C([S-])=C(/[S-])C#N.[Co].c1ccc([P+](c2ccccc2)(c2ccccc2)c2ccccc2)cc1,T/C,"dose: 75.0 mg/kg/injection, schedule: Q01DX009 (ip), vehicle: Klucel (hydroxypropylcellulose) (HPC)",121 % of control
same,T/C,[6],100 % of control
same,T/C,"dose: 150.0 mg/kg/injection, schedule: Q01DX009 (ip), vehicle: Klucel (hydroxypropylcellulose) (HPC)",110 % of control
same,T/C,"dose: 150.0 mg/kg/injection, schedule: Q04DX003 (ip), vehicle: saline",110 % of control
same,T/C,"dose: 300.0 mg/kg/injection, schedule: Q01DX009 (ip), vehicle: Klucel (hydroxypropylcellulose) (HPC)",103 % of control
same,T/C,"dose: 300.0 mg/kg/injection, schedule: Q04DX003 (ip), vehicle: saline",98 % of control
CC(=O)NC(C)Cc1ccc2c(c1)OCO2 (centres undefined),T/C,"dose: 100.0 mg/kg/injection, schedule: Q01DX009 (ip), vehicle: Klucel (hydroxypropylcellulose) (HPC)",102 % of control
same,T/C,"dose: 200.0 mg/kg/injection, schedule: Q01DX009 (ip), vehicle: Klucel (hydroxypropylcellulose) (HPC)",107 % of control
Cc1ccc(-n2c(O)c(N=Nc3ccccc3C)c(=O)n(-c3ccc(Cl)cc3)c2=S)cc1,T/C,"dose: 50.0 mg/kg/injection, schedule: Q01DX001 (ip), vehicle: Klucel (hydroxypropylcellulose) (HPC)",104 % of control
same,T/C,"dose: 100.0 mg/kg/injection, schedule: Q01DX001 (ip), vehicle: Klucel (hydroxypropylcellulose) (HPC)",102 % of control
same,T/C,"dose: 200.0 mg/kg/injection, schedule: Q01DX001 (ip), vehicle: Klucel (hydroxypropylcellulose) (HPC)",102 % of control
Cc1cc(C)c(C(=O)c2ccccc2)c(=O)o1,T/C,"dose: 10.0 mg/kg/injection, schedule: Q01DX001 (ip), vehicle: carboxymethylcellulose (CMC)",100 % of control
same,T/C,"dose: 20.0 mg/kg/injection, schedule: Q01DX001 (ip), vehicle: carboxymethylcellulose (CMC)",100 % of control
same,T/C,"dose: 40.0 mg/kg/injection, schedule: Q01DX001 (ip), vehicle: carboxymethylcellulose (CMC)",97 % of control
same,T/C,[7],103 % of control
O=NN(CCCl)C(=O)NC1CCC(CCl)CC1 (centres undefined),T/C,"dose: 8.0 mg/kg/injection, schedule: Q01DX001 (ip), vehicle: saline with Tween-80",114 % of control
same,T/C,"dose: 12.0 mg/kg/injection, schedule: Q01DX001 (ip), vehicle: saline with Tween-80",181 % of control
same,T/C,"dose: 18.0 mg/kg/injection, schedule: Q01DX001 (ip), vehicle: saline with Tween-80",183 % of control
same,T/C,"dose: 26.0 mg/kg/injection, schedule: Q01DX001 (ip), vehicle: saline with Tween-80",320 % of control
same,T/C,"dose: 40.0 mg/kg/injection, schedule: Q01DX001 (ip), vehicle: saline with Tween-80",310 % of control
same,T/C,"dose: 60.0 mg/kg/injection, schedule: Q01DX001 (ip), vehicle: saline with Tween-80",372 % of control
same,T/C,"dose: 90.0 mg/kg/injection, schedule: Q01DX001 (ip), vehicle: saline with Tween-80",297 % of control
same,T/C,[1],187 % of control
COc1ccc(C(CC(=O)c2ccccc2)CC(=O)c2ccccc2)cc1,T/C,[5],87 % of control
CN=C(NN)NN,T/C,"dose: 2.5 mg/kg/injection, schedule: Q01DX009 (ip), vehicle: saline",106 % of control
same,T/C,"dose: 5.0 mg/kg/injection, schedule: Q01DX009 (ip), vehicle: saline",95 % of control
same,T/C,"dose: 5.0 mg/kg/injection, schedule: Q04DX003 (ip), vehicle: saline",95 % of control
same,T/C,"dose: 10.0 mg/kg/injection, schedule: Q01DX001 (ip), vehicle: saline",102 % of control
same,T/C,"dose: 10.0 mg/kg/injection, schedule: Q01DX009 (ip), vehicle: saline",97 % of control
same,T/C,"dose: 10.0 mg/kg/injection, schedule: Q04DX003 (ip), vehicle: saline",103 % of control
same,T/C,"dose: 20.0 mg/kg/injection, schedule: Q01DX001 (ip), vehicle: saline",103 % of control
same,T/C,"dose: 20.0 mg/kg/injection, schedule: Q04DX003 (ip), vehicle: saline",90 % of control
NC(=S)c1ccc(N)cc1,T/C,"dose: 12.5 mg/kg/injection, schedule: Q04DX003 (ip), vehicle: saline",105 % of control
same,T/C,"dose: 25.0 mg/kg/injection, schedule: Q04DX003 (ip), vehicle: saline",103 % of control
same,T/C,"dose: 50.0 mg/kg/injection, schedule: Q04DX003 (ip), vehicle: saline",97 % of control and 102 % of control
same,T/C,[6],106 % of control
same,T/C,"dose: 115.0 mg/kg/injection, schedule: Q04DX003 (ip), vehicle: saline",97 % of control
Cc1cc2cc3c(=O)[nH]c(=O)nc-3n(CC(O)C(O)C(O)COP(=O)(O)O)c2cc1C (centres undefined),T/C,"dose: 25.0 mg/kg/injection, schedule: Q01DX009 (ip), vehicle: saline",96 % of control
same,T/C,"dose: 50.0 mg/kg/injection, schedule: Q01DX009 (ip), vehicle: saline",100 % of control
same,T/C,"dose: 100.0 mg/kg/injection, schedule: Q01DX009 (ip), vehicle: saline",94 % of control and 89 % of control
same,T/C,"dose: 100.0 mg/kg/injection, schedule: Q04DX003 (ip), vehicle: saline",110 % of control
same,T/C,"dose: 200.0 mg/kg/injection, schedule: Q01DX009 (ip), vehicle: saline",86 % of control
same,T/C,"dose: 200.0 mg/kg/injection, schedule: Q04DX003 (ip), vehicle: saline",100 % of control
same,T/C,"dose: 400.0 mg/kg/injection, schedule: Q04DX003 (ip), vehicle: saline",98 % of control
Cc1ccc(S(=O)(=O)Nc2ccccc2)c(C(O)(c2ccccc2)c2ccccc2)c1,T/C,[2],91 % of control
same,T/C,[3],96 % of control
same,T/C,[4],93 % of control
CC(C)(C)SCCO,T/C,"dose: 100.0 mg/kg/injection, schedule: Q04DX002 (ip), vehicle: saline",105 % of control
same,T/C,"dose: 200.0 mg/kg/injection, schedule: Q04DX002 (ip), vehicle: saline",99 % of control
same,T/C,"dose: 400.0 mg/kg/injection, schedule: Q04DX002 (ip), vehicle: saline",96 % of control
CCCCCCOc1ccc(C2=C(c3ccccc3)C(=O)C(c3ccccc3)=C2c2ccccc2)cc1,T/C,"dose: 100.0 mg/kg/injection, schedule: Q01DX001 (ip), vehicle: carboxymethylcellulose (CMC)",100 % of control
same,T/C,"dose: 200.0 mg/kg/injection, schedule: Q01DX001 (ip), vehicle: carboxymethylcellulose (CMC)",97 % of control
same,T/C,[7],100 % of control
CCOC(=O)C(CC(C(=O)OCC)C(=O)c1ccccc1)C(=O)c1ccccc1 (centres undefined),T/C,"dose: 100.0 mg/kg/injection, schedule: Q01DX001 (ip), vehicle: saline",92 % of control
same,T/C,"dose: 200.0 mg/kg/injection, schedule: Q01DX001 (ip), vehicle: saline",90 % of control
same,T/C,"dose: 400.0 mg/kg/injection, schedule: Q01DX001 (ip), vehicle: saline",97 % of control
O=C1OC(=O)c2c(Br)cccc21,T/C,"dose: 5.0 mg/kg/injection, schedule: Q04DX003 (ip), vehicle: Klucel (hydroxypropylcellulose) (HPC)",102 % of control
same,T/C,"dose: 10.0 mg/kg/injection, schedule: Q04DX003 (ip), vehicle: Klucel (hydroxypropylcellulose) (HPC)",100 % of control
same,T/C,"dose: 20.0 mg/kg/injection, schedule: Q04DX003 (ip), vehicle: Klucel (hydroxypropylcellulose) (HPC)",114 % of control
O=C(Oc1ccc(S(=O)(=O)F)cc1Cl)c1ccc([N+](=O)[O-])cc1,T/C,"dose: 100.0 mg/kg/injection, schedule: Q04DX002 (ip), vehicle: Klucel (hydroxypropylcellulose) (HPC)",118 % of control
same,T/C,"dose: 200.0 mg/kg/injection, schedule: Q04DX002 (ip), vehicle: Klucel (hydroxypropylcellulose) (HPC)",96 % of control
same,T/C,"dose: 400.0 mg/kg/injection, schedule: Q04DX002 (ip), vehicle: Klucel (hydroxypropylcellulose) (HPC)",96 % of control
